Data taken from PubChem BioAssay (NCI).
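In this assay, cells in 96-well plates receive the compound at five concentrations for 48 hours. Endpoints are linearly interpolated between the surrounding concentrations. Abbreviation: GI50, concentration required for 50% inhibition of growth. Definition used: TGI = concentration required for complete inhibition of growth.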 Active and inactive are the calls of the source. Cut-off read from the data, not from the text of the source: active = GI50 below about 0.43 µM; inactive = the rest.

Columns and labels:
Test in all cases: NCI tumour cell line growth inhibition, 48 h
SW-620 colon = system: SW-620 colon
P388/ADR leukemia = system: P388/ADR leukemia
HL-60(TB) leukemia = system: HL-60(TB) leukemia
XF 498 CNS = system: XF 498 CNS
SN12K1 renal = system: SN12K1 renal
SN12C renal = system: SN12C renal
HOP-92 NSCLC = system: HOP-92 NSCLC
CCRF-CEM leukemia = system: CCRF-CEM leukemia
SNB-75 CNS = system: SNB-75 CNS
HOP-62 NSCLC = system: HOP-62 NSCLC
DMS 114 small cell lung = system: DMS 114 small cell lung
LOX IMVI melanoma = system: LOX IMVI melanoma
MALME-3M melanoma = system: MALME-3M melanoma
KM20L2 colon = system: KM20L2 colon
U251 CNS = system: U251 CNS
NCI-H460 lung = system: NCI-H460 lung
A549 NSCLC = system: A549 NSCLC
OVCAR-5 ovarian = system: OVCAR-5 ovarian
HCT-116 colon = system: HCT-116 colon
CAKI-1 renal = system: CAKI-1 renal
MCF7 breast = system: MCF7 breast
SF-295 CNS = system: SF-295 CNS
A498 renal = system: A498 renal
SK-MEL-2 melanoma = system: SK-MEL-2 melanoma
SK-OV-3 ovarian = system: SK-OV-3 ovarian
NCI/ADR-RES ovarian = system: NCI/ADR-RES ovarian
DMS 273 small cell lung = system: DMS 273 small cell lung
M19-MEL melanoma = system: M19-MEL melanoma
SF-268 CNS = system: SF-268 CNS
SK-MEL-28 melanoma = system: SK-MEL-28 melanoma
MOLT-4 leukemia = system: MOLT-4 leukemia
IGROV1 ovarian = system: IGROV1 ovarian
DLD-1 colon = system: DLD-1 colon
UACC-62 melanoma = system: UACC-62 melanoma
HT29 colon = system: HT29 colon
OVCAR-8 ovarian = system: OVCAR-8 ovarian
EKVX NSCLC = system: EKVX NSCLC
NCI-H226 lung = system: NCI-H226 lung
OVCAR-4 ovarian = system: OVCAR-4 ovarian
UACC-257 melanoma = system: UACC-257 melanoma
SF-539 CNS = system: SF-539 CNS
KM12 colon = system: KM12 colon
SNB-19 CNS = system: SNB-19 CNS
HCC-2998 colon = system: HCC-2998 colon
P388 leukemia = system: P388 leukemia
OVCAR-3 ovarian = system: OVCAR-3 ovarian
SK-MEL-5 melanoma = system: SK-MEL-5 melanoma
UO-31 renal = system: UO-31 renal
K-562 leukemia = system: K-562 leukemia
RXF 393 renal = system: RXF 393 renal
NCI-H522 lung = system: NCI-H522 lung
NCI-H23 lung = system: NCI-H23 lung
HOP-18 NSCLC = system: HOP-18 NSCLC
HCT-15 colon = system: HCT-15 colon
RPMI-8226 leukemia = system: RPMI-8226 leukemia

What does the source list for `C=Cc1ccccc1` (tested in a mixture with another compound)?
GI50 (SW-620 colon): > 75 µg/mL; TGI (SW-620 colon): > 75 µg/mL; GI50 (P388/ADR leukemia): > 75 µg/mL; TGI (P388/ADR leukemia): > 75 µg/mL; GI50 (HL-60(TB) leukemia): > 75 µg/mL; TGI (HL-60(TB) leukemia): > 75 µg/mL; outcome (XF 498 CNS): inactive; GI50 (SN12K1 renal): > 75 µg/mL; TGI (SN12K1 renal): > 75 µg/mL; GI50 (SN12C renal): > 75 µg/mL; TGI (SN12C renal): > 75 µg/mL; GI50 (HOP-92 NSCLC): 59.5 µg/mL; TGI (HOP-92 NSCLC): > 75 µg/mL; GI50 (CCRF-CEM leukemia): > 75 µg/mL; TGI (CCRF-CEM leukemia): > 75 µg/mL; GI50 (SNB-75 CNS): 28.3 µg/mL; TGI (SNB-75 CNS): > 75 µg/mL; GI50 (HOP-62 NSCLC): 48.4 µg/mL; TGI (HOP-62 NSCLC): > 75 µg/mL; GI50 (DMS 114 small cell lung): > 75 µg/mL; TGI (DMS 114 small cell lung): > 75 µg/mL; GI50 (LOX IMVI melanoma): > 75 µg/mL; TGI (LOX IMVI melanoma): > 75 µg/mL; GI50 (MALME-3M melanoma): > 75 µg/mL; TGI (MALME-3M melanoma): > 75 µg/mL; outcome (KM20L2 colon): inactive; GI50 (U251 CNS): > 75 µg/mL; TGI (U251 CNS): > 75 µg/mL; GI50 (NCI-H460 lung): > 75 µg/mL; TGI (NCI-H460 lung): > 75 µg/mL; GI50 (A549 NSCLC): > 75 µg/mL; TGI (A549 NSCLC): > 75 µg/mL; GI50 (OVCAR-5 ovarian): > 75 µg/mL; TGI (OVCAR-5 ovarian): > 75 µg/mL; GI50 (HCT-116 colon): > 75 µg/mL; TGI (HCT-116 colon): > 75 µg/mL; GI50 (CAKI-1 renal): > 75 µg/mL; TGI (CAKI-1 renal): > 75 µg/mL; GI50 (MCF7 breast): > 75 µg/mL; TGI (MCF7 breast): > 75 µg/mL; GI50 (SF-295 CNS): > 75 µg/mL; TGI (SF-295 CNS): > 75 µg/mL; GI50 (A498 renal): > 75 µg/mL; TGI (A498 renal): > 75 µg/mL; GI50 (SK-MEL-2 melanoma): > 75 µg/mL; TGI (SK-MEL-2 melanoma): > 75 µg/mL; GI50 (SK-OV-3 ovarian): > 75 µg/mL; TGI (SK-OV-3 ovarian): > 75 µg/mL; GI50 (NCI/ADR-RES ovarian): > 75 µg/mL; TGI (NCI/ADR-RES ovarian): > 75 µg/mL; GI50 (DMS 273 small cell lung): > 75 µg/mL; TGI (DMS 273 small cell lung): > 75 µg/mL; GI50 (M19-MEL melanoma): > 75 µg/mL; TGI (M19-MEL melanoma): > 75 µg/mL; GI50 (SF-268 CNS): > 75 µg/mL; TGI (SF-268 CNS): > 75 µg/mL; GI50 (SK-MEL-28 melanoma): > 75 µg/mL; TGI (SK-MEL-28 melanoma): > 75 µg/mL; GI50 (MOLT-4 leukemia): > 75 µg/mL; TGI (MOLT-4 leukemia): > 75 µg/mL; GI50 (IGROV1 ovarian): > 75 µg/mL; TGI (IGROV1 ovarian): > 75 µg/mL; GI50 (DLD-1 colon): > 75 µg/mL; TGI (DLD-1 colon): > 75 µg/mL; GI50 (UACC-62 melanoma): > 75 µg/mL; TGI (UACC-62 melanoma): > 75 µg/mL; GI50 (HT29 colon): > 75 µg/mL; TGI (HT29 colon): > 75 µg/mL; GI50 (OVCAR-8 ovarian): 63.3 µg/mL; TGI (OVCAR-8 ovarian): > 75 µg/mL; GI50 (EKVX NSCLC): > 75 µg/mL; TGI (EKVX NSCLC): > 75 µg/mL; GI50 (NCI-H226 lung): > 75 µg/mL; TGI (NCI-H226 lung): > 75 µg/mL; GI50 (OVCAR-4 ovarian): > 75 µg/mL; TGI (OVCAR-4 ovarian): > 75 µg/mL; GI50 (UACC-257 melanoma): > 75 µg/mL; TGI (UACC-257 melanoma): > 75 µg/mL; GI50 (SF-539 CNS): > 75 µg/mL; TGI (SF-539 CNS): > 75 µg/mL; GI50 (KM12 colon): > 75 µg/mL; TGI (KM12 colon): > 75 µg/mL; GI50 (SNB-19 CNS): > 75 µg/mL; TGI (SNB-19 CNS): > 75 µg/mL; GI50 (HCC-2998 colon): > 75 µg/mL; TGI (HCC-2998 colon): > 75 µg/mL; GI50 (P388 leukemia): > 75 µg/mL; TGI (P388 leukemia): > 75 µg/mL; GI50 (OVCAR-3 ovarian): > 75 µg/mL; TGI (OVCAR-3 ovarian): > 75 µg/mL; GI50 (SK-MEL-5 melanoma): > 75 µg/mL; TGI (SK-MEL-5 melanoma): > 75 µg/mL; GI50 (UO-31 renal): > 75 µg/mL; TGI (UO-31 renal): > 75 µg/mL; GI50 (K-562 leukemia): > 75 µg/mL; TGI (K-562 leukemia): > 75 µg/mL; GI50 (RXF 393 renal): > 75 µg/mL; TGI (RXF 393 renal): > 75 µg/mL; GI50 (NCI-H522 lung): > 75 µg/mL; TGI (NCI-H522 lung): > 75 µg/mL; GI50 (NCI-H23 lung): > 75 µg/mL; TGI (NCI-H23 lung): > 75 µg/mL; outcome (HOP-18 NSCLC): inactive; GI50 (HCT-15 colon): > 75 µg/mL; TGI (HCT-15 colon): > 75 µg/mL; GI50 (RPMI-8226 leukemia): > 75 µg/mL; TGI (RPMI-8226 leukemia): > 75 µg/mL
